Data reported in ChEMBL document CHEMBL1201862, “PubChem BioAssay data set” (2004).
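Compound exposure: 48 hours, 5 concentrations, 96-well plates. GI50 = concentration required for 50% inhibition of growth.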 Calls of active or inactive are those of the source. Rule as the data show it: active = GI50 up to about 1.1 µM and inactive = higher.

What was measured:
Test in all cases: NCI tumour cell line growth inhibition, 48 h
[1] = tested on: SF-539
[2] = tested on: TK-10
[3] = tested on: COLO 205
[4] = tested on: M14
[5] = tested on: SNB-19
[6] = tested on: MOLT-4
[7] = tested on: OVCAR-4
[8] = tested on: Malme-3M
[9] = tested on: DU-145
[10] = tested on: RPMI-8226
[11] = tested on: SR
[12] = tested on: OVCAR-5
[13] = tested on: LOX IMVI
[14] = tested on: RXF 393
[15] = tested on: SNB-75
[16] = tested on: Hs-578T
[17] = tested on: HOP-92
[18] = tested on: MCF7
[19] = tested on: UACC-62
[20] = tested on: MDA-N
[21] = tested on: NCI/ADR-RES
[22] = tested on: SK-MEL-28
[23] = tested on: OVCAR-3
[24] = tested on: KM12
[25] = tested on: 786-0
[26] = tested on: NCI-H522
[27] = tested on: CCRF-CEM
[28] = tested on: SN12C
[29] = tested on: SF-295
[30] = tested on: HCT-15
[31] = tested on: K562
[32] = tested on: PC-3
[33] = tested on: SK-MEL-5
[34] = tested on: MDA-MB-435
[35] = tested on: SK-MEL-2
[36] = tested on: NCI-H460
[37] = tested on: SF-268
[38] = tested on: CAKI-1
[39] = tested on: UACC-257
[40] = tested on: EKVX
[41] = tested on: IGROV-1
[42] = tested on: HCC 2998
[43] = tested on: NCI-H226
[44] = tested on: U-251
[45] = tested on: NCI-H23
[46] = tested on: A498
[47] = tested on: MDA-MB-231
[48] = tested on: OVCAR-8
[49] = tested on: HCT-116
[50] = tested on: SW-620
[51] = tested on: HL-60
[52] = tested on: A549
[53] = tested on: ACHN
[54] = tested on: T47D
[55] = tested on: BT-549
[56] = tested on: HT-29
[57] = tested on: HOP-62
[58] = tested on: SK-OV-3
[59] = tested on: UO-31

Structure (SMILES): O=[N+]([O-])c1ccc2c(c1)n1c(N3CCCC3)[n+]3ccccc3c1c1c3ccccn3c(N3CCCC3)[n+]21.[O-][Cl+3]([O-])([O-])[O-].[O-][Cl+3]([O-])([O-])[O-]
- GI50 [1]: 39.5 µM (inactive)
- GI50 [2]: > 100 µM (inactive)
- GI50 [3]: 54 µM (inactive)
- GI50 [4]: > 100 µM (inactive)
- GI50 [5]: 45 µM (inactive)
- GI50 [6]: 43.2 µM (inactive)
- GI50 [7]: > 100 µM (inactive)
- GI50 [8]: 68.9 µM (inactive)
- GI50 [9]: > 100 µM (inactive)
- GI50 [10]: > 100 µM (inactive)
- GI50 [11]: > 100 µM (inactive)
- GI50 [12]: > 100 µM (inactive)
- GI50 [13]: > 100 µM (inactive)
- GI50 [14]: > 100 µM (inactive)
- GI50 [15]: 44 µM (inactive)
- GI50 [16]: 83.2 µM (inactive)
- GI50 [17]: > 100 µM (inactive)
- GI50 [18]: 9.46 µM (inactive)
- GI50 [19]: > 100 µM (inactive)
- GI50 [20]: > 100 µM (inactive)
- GI50 [21]: > 100 µM (inactive)
- GI50 [22]: > 100 µM (inactive)
- GI50 [23]: > 100 µM (inactive)
- GI50 [24]: > 100 µM (inactive)
- GI50 [25]: > 100 µM (inactive)
- GI50 [26]: 29 µM (inactive)
- GI50 [27]: 21.1 µM (inactive)
- GI50 [28]: 51.8 µM (inactive)
- GI50 [29]: 61.4 µM (inactive)
- GI50 [30]: > 100 µM
- GI50 [31]: 23.7 µM (inactive)
- GI50 [32]: > 100 µM (inactive)
- GI50 [33]: > 100 µM (inactive)
- GI50 [34]: > 100 µM (inactive)
- GI50 [35]: > 100 µM (inactive)
- GI50 [36]: > 100 µM (inactive)
- GI50 [37]: 17.5 µM (inactive)
- GI50 [38]: > 100 µM (inactive)
- GI50 [39]: > 100 µM (inactive)
- GI50 [40]: > 100 µM (inactive)
- GI50 [41]: > 100 µM (inactive)
- GI50 [42]: > 100 µM (inactive)
- GI50 [43]: 44.3 µM (inactive)
- GI50 [44]: 36.7 µM (inactive)
- GI50 [45]: > 100 µM (inactive)
- GI50 [46]: > 100 µM (inactive)
- GI50 [47]: > 100 µM (inactive)
- GI50 [48]: > 100 µM (inactive)
- GI50 [49]: > 100 µM (inactive)
- GI50 [50]: 65.9 µM (inactive)
- GI50 [51]: 32 µM (inactive)
- GI50 [52]: > 100 µM (inactive)
- GI50 [53]: 10 µM (inactive)
- GI50 [54]: > 100 µM (inactive)
- GI50 [55]: > 100 µM (inactive)

Structure (SMILES): Cc1c(F)c(N)c2c(=O)cc(-c3ccc(NC(=O)C(N)CCCNC(=N)N)c(F)c3)oc2c1F (stereo not given)
- GI50 [1]: 16.7 µM (inactive)
- GI50 [2]: 0.146 µM (active)
- GI50 [56]: > 71.8 µM (inactive)
- GI50 [3]: 23.8 µM (inactive)
- GI50 [4]: 31.7 µM (inactive)
- GI50 [57]: > 52.2 µM (inactive)
- GI50 [5]: 24.8 µM (inactive)
- GI50 [6]: 34.6 µM (inactive)
- GI50 [7]: 0.141 µM (active)
- GI50 [8]: 27.5 µM (inactive)
- GI50 [9]: 29.6 µM (inactive)
- GI50 [10]: > 33.5 µM (inactive)
- GI50 [11]: 43 µM (inactive)
- GI50 [12]: 0.299 µM (active)
- GI50 [58]: > 44.5 µM (inactive)
- GI50 [13]: 38.1 µM (inactive)
- GI50 [59]: 22.8 µM (inactive)
- GI50 [14]: 21.6 µM (inactive)
- GI50 [16]: 28.5 µM (inactive)
- GI50 [17]: 49.5 µM (inactive)
- GI50 [18]: 0.0893 µM (active)
- GI50 [20]: 32.1 µM (inactive)
- GI50 [21]: 23.9 µM (inactive)
- GI50 [22]: 24.7 µM (inactive)
- GI50 [24]: 27 µM (inactive)
- GI50 [25]: 29 µM (inactive)
- GI50 [26]: 24.8 µM (inactive)
- GI50 [27]: > 88.3 µM (inactive)
- GI50 [28]: 17.1 µM (inactive)
- GI50 [29]: > 37.6 µM (inactive)
- GI50 [30]: 19.7 µM
- GI50 [32]: 30.5 µM (inactive)
- GI50 [33]: 19.7 µM (inactive)
- GI50 [34]: 27.2 µM (inactive)
- GI50 [35]: 23.4 µM (inactive)
- GI50 [36]: 0.146 µM (active)
- GI50 [37]: 32.7 µM (inactive)
- GI50 [38]: 0.0792 µM (active)
- GI50 [39]: 0.262 µM (active)
- GI50 [40]: 17.2 µM (inactive)
- GI50 [41]: 0.0759 µM (active)
- GI50 [42]: 0.134 µM (active)
- GI50 [43]: 0.111 µM (active)
- GI50 [44]: 3.6 µM (inactive)
- GI50 [45]: 27.9 µM (inactive)
- GI50 [46]: 0.0615 µM (active)
- GI50 [47]: 22.5 µM (inactive)
- GI50 [48]: 32.1 µM (inactive)
- GI50 [49]: 13.2 µM (inactive)
- GI50 [50]: > 61.5 µM (inactive)
- GI50 [51]: > 52 µM (inactive)
- GI50 [52]: 3.68 µM (inactive)
- GI50 [53]: 19.7 µM (inactive)
- GI50 [54]: 0.411 µM (active)
- GI50 [55]: 21.8 µM (inactive)
